Reference: patent US11596716B2, “Compounds and matrices for use in bone growth and repair” (Human BioMolecular Research Institute, priority 2013, dated 2023)
Where “and” joins values, the source holds several entries; their conditions need not be identical. Equal entries are not always repeated. Each block holds one molecule with its values, some of them ahead of it.

Key:
[1] = test system: hMSCs; test: qPCR of target gene mRNA expression in hMSCs; assay type: cell-based, human
Protocol: qPCR detection of osteogenic markers: Cells were cultured with compound in the presence or absence of matrix as described above, but using 96-well plate format. Total RNA was extracted from cells (as above) using Trizol. cDNA was made using 750 ng of total RNA with Bio-Rad iscript kit and was diluted 20-fold before being used for qPCR. qPCR was conducted under the following conditions: 95° C., 2 min; 95° C., 10 s and 60° C., 45 s for 40 cycles; 60° C. for 71 cycles for melt curve. qPCR results were analyzed by the ΔΔCt method. 18s rRNA was used as an internal standard. This protocol was applied to hMSC and E15 cells.
Runx2 and BMP-2 are osteogenic markers; Axin2, Wnt3a, and Sox 9 are Wnt-inducible gene markers.
The assay for mRNA expression followed the same procedure with hMSCs as described for C2C12 cells (Example 7).

[2] = test system: hMSCs; test: Alcian Blue staining (chondrogenesis) in hMSCs; assay type: cell-based, human; details: 25 days; for effect on chondrogenesis, densitometry of cell culture images: 500 nM, TCP 5 mg/mL; for chondrogenesis (Alcian Blue staining) compared to vehicle-treated hMSCs: presence or absence of matrix
Protocol: Alcian Blue Staining: Alcian Blue staining was used to stain for the presence of chondrocytes. Alcian Blue solution (1% wt/volume, acetic acid, pH 2.5). hMSCs were cultured as described above for the Alizarin Red S Staining assay (Ex. 7) in 48-well plates. After 25 days of cell culture, cells were fixed with 4% formaldehyde (40 mins) at room temperature, stained for 1 hr followed by washing with dH2O (1 mL) until water was clear (without blue elutes). Cell culture images were taken under a microscope and quantified by densitometry.

[3] = test system: Human embryonic stem cells E15 (hESCs); test: qPCR of TLR4/TLR3 ratio and Collagen I in human embryonic stem cells E15; assay type: cell-based; details: 500 nM, 8 days
Protocol: Human embryonic stem cells E15 (hESCs) obtained from ATCC with less than 15 passages were cultured at 37° C. in 5% CO2 in DMEM media supplemented with 15% heat inactivated FBS and 1× GlutaMax. TLRs are biomarkers of stem cell differentiation. TLR4 expression is an osteogenic biomarker and TLR3 expression is an adipogenic biomarker. […]

[4] = test system: hMSCs; test: Transwell migration of hMSCs to calcium phosphate matrix; assay type: cell-based, human
Protocol: Human MSC migration to the site of bone injury is an important part of the repair process. […] After 8 hrs, compounds were washed off the cells and cells placed in a traditional transwell migration system. The top reservoir contained serum-free DMEM and the bottom reservoir contained DMEM plus 2% FBS. After incubation overnight, non-migrated cells were removed, migrated cells (stuck in the bottom chamber) were then fixed with 70% EtOH (40 mins) and total migrated cells were counted under a microscope after staining with 1 mg/mL of crystal violet (1 hr). hMSCs treated with compound 2 (500 nM, 8 hr) induced a 10-fold greater cell migration to the matrix than DMSO-pre-treated cells under the conditions described above. In a separate experiment, matrix that was pre-coated with compound 4 (as prepared in Example 5) was placed in the bottom chamber and migration of hMSCs from the top chamber was evaluated. Compound 4-coated matrix induced a 2-fold increase in cell migration to the matrix compared to DMSO-treated cells.
hMSC migration was analyzed by using calcium phosphate matrix that had been pre-adsorbed with compounds 1 or 2 (500 nM, as described in Example 5) and studied in the transwell system (2% serum, described above). Compound 1 and 2 induced 3.5-fold and 1.9-fold more cell migration than non-coated ceramic. While non-limiting, these examples show the utility of the approach for increased cell migration and localization to the calcium phosphate ceramic matrix when compounds of the disclosure are present. Use of compounds of Formula II, IV, and VI to pre-coat the ceramic and also pretreat the cells is also of utility.

[5] = test system: Wnt transcription; test: WNT transcriptional reporter assay (Super(8×)TOPflash luciferase, HEK293T cells); assay type: cell-based; details: Homo sapiens, HEK-293T, Wnt3A-expressing vector, 20 hrs, relative to cells treated with DMSO alone, read-out: Wnt transcription potency
Source text: Commercially available Super(8×)TOPflash vector driven by a (7×) TCF-firefly luciferase response element was transiently transfected into HEK293T cells, together with a TK-driven Renilla luciferase plasmid as an internal control to normalize the luminescence signal and a Wnt3A-expressing vector as the source of pathway activation. HEK293T cells were transfected with plasmids in DMEM plus 10% fetal bovine serum (FBS) for 8 hr, replated to 96-well plates in DMEM plus 10% FBS followed by treatment with compounds (1.6 nM to 5 M) (DMSO final concentration is 0.5%) for 20 hrs. Firefly and Renilla luciferase activities were measured and normalized by the Renilla luciferase values.

[6] = test system: cells released from demineralized allogeneic bone chips; test: Allograft-derived cells cultured with compound and TCP matrix; assay type: cell-based; details: 500 nM, TCP matrix 5 mg/mL, 8 days
Protocol: Demineralized allogeneic bone chips were thawed at 37° C. quickly with gentle agitation, washed with Dulbecco's PBS (DPBS) and centrifuged at 600×g for 5 min at room temperature. The material was digested with a collagenase and the mixture was filtered through a 100 µm cell strainer and the remaining bone fragments were rinsed with DPBS. The released cells were centrifuged at 1,200× rpm for 5 min at room temperature, resuspended and plated in 10 mL α-MEM media plus 20% FBS plus 1×Glutmax. After three days at 37° C. and 5% CO2, the TCP matrix (5 mg/mL) was added followed by compound 1 (500 nM) (or other compounds of Formula II, IV or VI) and the cell culture media was replaced every two days with fresh media-containing compound for 8 days. Cells were harvested after 8 days for determination of ALP activity, osteogenic mRNA biomarkers (i.e., VDR and collagen I, and cell proliferation. Cell proliferation increased 2.5-fold. VDR and collagen/mRNA expression increased 4.5-fold and 2.2-fold, respectively. Similar to isolated hMSCs in the presence of matrix, allograft-derived cells also respond to the presence of compounds and matrix to afford osteogenesis. The cells can be used in implantation as described in Examples 19 and 20.

[7] = compound 500 nM, matrix 5 mg/mL, 3 days

Compound: CC(C)[C@H](N)C(=O)Oc1ccc(C=CC(=O)C=C(O)C=Cc2ccc(OC(=O)[C@@H](N)C(C)C)cc2)cc1 [Compound 3, (2S,2′S)—O,O′-(3-hydroxy-5-oxohepta-1,3,6-triene-1,7-diyl)bis(4,1-phenylene) bis(2-amino-3-methylbutanoate)]
Collagen 1 mRNA Fold-Change +/− SD, −matrix ([1]; 500 nM, 8 days): 1.5 fold and 1.5 ± 0.2 fold
Osteocalcin mRNA Fold-Change +/− SD, −matrix ([1]; 500 nM, 8 days): 0.5 ± 0.1 fold
VDR mRNA Fold-Change +/− SD, −matrix ([1]; 500 nM, 8 days): 5.0 ± 0.5 fold
decrease of Sox9 expression ([1]; 500 nM, matrix 5 mg/mL, 3 days): 40%
decrease of Wnt repressor gene Axin2 expression ([1]; 500 nM, matrix 5 mg/mL, 3 days): 80%
ALP mRNA Fold-Change +/− SD, +matrix ([1]; 500 nM, matrix 5 mg/mL, 8 days): 55 fold and 55.0 ± 5.0 fold
Collagen 1 mRNA Fold-Change +/− SD, +matrix ([1]; 500 nM, matrix 5 mg/mL, 8 days): 1.8 ± 0.2 fold
Osteocalcin mRNA Fold-Change +/− SD, +matrix ([1]; 500 nM, matrix 5 mg/mL, 8 days): 5.2 ± 0.5 fold
VDR mRNA Fold-Change +/− SD, +matrix ([1]; 500 nM, matrix 5 mg/mL, 8 days): 45 fold and 45.0 ± 5.0 fold
BMP-2 mRNA fold-changes +/− SD, −matrix ([1]; compound 500 nM, 3 days): 2.6 ± 0.2 fold
Runx2 mRNA fold-changes +/− SD, −matrix ([1]; compound 500 nM, 3 days): 101.3 ± 10.0 fold
Sox9 mRNA fold-changes +/− SD, −matrix ([1]; compound 500 nM, 3 days): 0.1 ± 0.01 fold
Wnt3a mRNA fold-changes +/− SD, −matrix ([1]; compound 500 nM, 3 days): 1 ± 0.1 fold
Wnt5a mRNA fold-changes +/− SD, −matrix ([1]; compound 500 nM, 3 days): 1 ± 0.1 fold
Axin2 mRNA fold-changes +/− SD, +matrix [1, 7]: 0.2 ± 0.02 fold
BMP-2 mRNA fold-changes +/− SD, +matrix [1, 7]: 7.5 fold and 7.5 ± 0.7 fold
Runx2 mRNA fold-changes +/− SD, +matrix [1, 7]: 8.2 fold and 8.2 ± 0.8 fold
Sox9 mRNA fold-changes +/− SD, +matrix [1, 7]: 0.6 ± 0.1 fold
Wnt3a mRNA fold-changes +/− SD, +matrix [1, 7]: 82.4 fold and 82.4 ± 8.0 fold
Wnt5a mRNA fold-changes +/− SD, +matrix [1, 7]: 6.3 fold and 6.3 ± 0.6 fold
effect on chondrogenesis, densitometry of cell culture images [2]: modestly inhibitory on chondrogenesis
chondrogenesis (Alcian Blue staining) compared to vehicle-treated hMSCs [2]: no increase in chondrogenesis
increase of TLR4/TLR3 ratio in hESCs [3]: 2 fold

Compound: CC(C)[C@H](N)C(=O)Oc1ccc(/C=C/C(O)=C2\CCC/C(=C\c3ccc(OC(=O)[C@@H](N)C(C)C)cc3)C2=O)cc1 [Compound 4, 4-((1E,3Z)-3-(3-((E)-4-((L-valyl)oxy)benzylidene)-2-oxocyclohexylidene)-3-hydroxyprop-1-en-1-yl)phenyl L-valinate]
effect on chondrogenesis, densitometry of cell culture images [2]: modestly inhibitory on chondrogenesis
chondrogenesis (Alcian Blue staining) compared to vehicle-treated hMSCs [2]: no increase in chondrogenesis
cell migration to compound-coated matrix compared to DMSO-treated cells ([4]; matrix pre-coated with compound in bottom chamber): 2 fold
increase of TLR4/TLR3 ratio in hESCs [3]: 2 fold

EC50 [5]: < 15 nM
Compound: CC(=O)N1c2ccc(C)cc2[C@H](Nc2ccc(C)cc2)C[C@@H]1C (relative stereo) [Compound 1, cis-1-acetyl-2,6-dimethyl-N-(p-methylphenyl)-1,2,3,4-tetrahydroquinolin-4-amine]
cell migration to matrix pre-adsorbed with compound versus non-coated ceramic ([4]; 500 nM, transwell, 2% serum): 3.5 fold
Cell proliferation increase [6]: 2.5 fold
VDR mRNA expression increase [6]: 4.5 fold
collagen/mRNA expression increase [6]: 2.2 fold
